Structures can show the parent of a compound that is named as a salt. Where two headings read alike, the source gives them in different places. Non-standard residues stand in square brackets, D forms with d. Residues, ends and D or L forms follow the SMILES beside them. Dopa = N[C@@H](Cc1ccc(O)c(O)c1)C(=O)O
Columns and labels:
physchem = type: physicochemical; details: for solubility thermodynamic: read-out: LD-Lys TFA salt concentration
Description: The volume of the solution in the bottle was adjusted to 5 ml, either by adding solvent, or be removing any residual solution, after which the bottle was tightly closed and left at 25° C. for stability observation. It is noted that throughout Example 4, the concentrations in the tables below were calculated taking into account the amount of solvent added or the solution removed, in which event, the calculations were performed regarding the 5 ml+(amount removed) as the volume of the solution. It is further noted that throughout this document, unless mentioned otherwise, the stability was measured using the manual visual inspection Bosch apparatus MIH DX, at a magnification of ×1.75.
The LD-Tyr free base, prepared according to Example 2, was added to a solvent, as detailed in Table 7 below, and neutralized by addition of NaOH. When maximum solubility was observed, the solution was filtered and then transferred to a bottle that was previously weighed and flushed with nitrogen. The volume of the solution in the bottle was adjusted to 5 ml, after which the bottle was tightly closed and left at 25° C. for stability observation.
When maximum solubility was observed, the solution was filtered and then transferred to a bottle that was previously weighed and flushed with nitrogen. The volume of the solution in the bottle was adjusted to 5 ml, after which the bottle was tightly closed and left at 25° C. for stability observation.
(§1) When maximum solubility was observed, the solution was filtered and then transferred to a bottle that was previously weighed and flushed with nitrogen. The volume of the solution in the bottle was adjusted to 5 ml, after which the bottle was tightly closed and stored at 25° C. for stability observation.
as §1
LD-Lys TFA salt, prepared according to Example 1, and which comprises two equivalents of TFA, was added to a solvent, as detailed in Table 11 below, and neutralized by addition of NaOH. When maximum solubility was observed, the solution was filtered and then transferred to a bottle that was previously weighed and flushed with nitrogen. The volume of the solution in the bottle was adjusted to 5 ml, after which the bottle was tightly closed and stored at 25° C. for stability observation.
As detailed above regarding other solutions, with the LD-Tyr free base when maximum solubility was observed, the solution was filtered and then transferred to a bottle that was previously weighed and flushed with nitrogen. The volume of the solution in the bottle was adjusted to 5 ml, after which the bottle was tightly closed and left at 25° C. for stability observation.
LD-Lys HCl salt, prepared according to Example 3, was added to a solvent, as detailed in Table 13 below, and neutralized by the addition of NaOH. When maximum solubility was observed, the solution was filtered and then transferred to a bottle that was previously weighed and flushed with nitrogen. The volume of the solution in the bottle was adjusted to 5 ml, after which the bottle was tightly closed and left at 25° C. for stability observation.

[1] = Human liver S9 stability test; type: in vitro ADME; details: substrate 10 μM, S9 protein 0.2 mg/mL; for Ke: slope of the percentage decrease of remaining compound, 0-60 minutes
Description: The stability of several LDAA compounds, in their TFA salt form, in human liver S9 was tested using commercially available liver S9. The substrate concentration was 10 μM, the S9 protein concentration was 0.2 mg/mL, and the incubation time 0, 5, 15, 30 and 60 minutes.
The results are described in Table 18, wherein the results describe the Ke, i.e., the slope of the percentage decrease of the remaining amount of the compound, measured at each of the above time points, such that the higher the Ke the faster the metabolism.

[2] = Stability observation of the solubility solutions at 25° C. (visual inspection for precipitants); type: physicochemical; details: 0.75% CD solution
Description: The volume of the solution in the bottle was adjusted to 5 ml, either by adding solvent, or be removing any residual solution, after which the bottle was tightly closed and left at 25° C. for stability observation. […] It is further noted that throughout this document, unless mentioned otherwise, the stability was measured using the manual visual inspection Bosch apparatus MIH DX, at a magnification of ×1.75.

Caco-2 cells = assay: in vitro; details: Caco-2
[3] = solvent 0.1% NaBis in WFI, pH 1.8
[4] = solvent 0.1% NaBis in WFI, pH 6.92
[5] = solvent 0.1% NaBis in WFI, pH 6.99
[6] = solvent 0.1% NaBis in WFI, pH 7.06
[7] = solvent […] CD solution, pH 8.48
[8] = solvent DMSO:(0.1% NaBis in WFI) (70:30), pH 5.40
[9] = solvent NMP:(0.1% NaBis in WFI) (70:30), pH 4.62
[10] = solvent […] CD solution in WFI, pH 8.35 (titer/NaOH)
[11] = solvent 0.75% CD solution, pH 6.5, precipitated
[12] = solvent 0.75% CD solution, pH 7.4 (line r20)
[13] = solvent 0.75% CD solution, pH 7.4, precipitated (line r14)
[14] = solvent […] CD solution, pH 8.36

## N=C(N)NCCC[C@H](NC(=O)[C@@H](N)Cc1ccc(O)c(O)c1)C(=O)O [LD-Arg TFA salt, Levodopa Arginine TFA Salt]
physchem; 0.1% NaBis in WFI, pH 1.8, 610 mg/ml salt
  Appearance: clear
physchem; 0.1% NaBis in WFI, pH 6.92, 200 mg/ml salt
  Appearance: clear
physchem; 0.1% NaBis in WFI, pH 6.99, 420 mg/ml salt
  Appearance: clear
physchem; 0.1% NaBis in WFI, pH 7.06, 200 mg/ml salt
  Appearance: clear
physchem; WFI, pH 1.7, 600 mg/ml salt
  Appearance: clear
physchem; WFI, pH 7.2, 200 mg/ml salt
  Appearance: clear
physchem; WFI, pH 7.2, 420 mg/ml salt
  Appearance: clear
physchem; […] CD solution, pH 8.48, 180 mg/ml salt
  Appearance: clear
physchem; [3]
  LD-Arg TFA salt concentration: 610 mg/mL
  LD-Arg free base Concentration: 370 mg/mL
physchem; [4]
  LD-Arg TFA salt concentration: 200 mg/mL
  LD-Arg free base Concentration: 120 mg/mL
physchem; [5]
  LD-Arg TFA salt concentration: 420 mg/mL
  LD-Arg free base Concentration: 260 mg/mL
physchem; [6]
  LD-Arg TFA salt concentration: 200 mg/mL
  LD-Arg free base Concentration: 120 mg/mL
physchem; solvent WFI, pH 1.7
  LD-Arg TFA salt concentration: 600 mg/mL
  LD-Arg free base Concentration: 370 mg/mL
physchem; solvent WFI, pH 7.2 (line r9)
  LD-Arg TFA salt concentration: 420 mg/mL
  LD-Arg free base Concentration: 260 mg/mL
physchem; solvent WFI, pH 7.2 (line r17)
  LD-Arg TFA salt concentration: 200 mg/mL
  LD-Arg free base Concentration: 120 mg/mL
physchem; [7]
  LD-Arg TFA salt concentration: 180 mg/mL
  LD-Arg free base Concentration: 110 mg/mL
[1]
  Ke: 0.1268
  metabolism in human liver S9 (in words): rapidly metabolized

## N[C@@H](Cc1ccc(O)c(O)c1)C(=O)N[C@@H](Cc1ccc(O)cc1)C(=O)O [LD-Tyr TFA salt, Levodopa Tyrosine TFA Salt] (H-[Dopa]-Tyr-OH)
physchem; 0.1% sodium bisulfite (Na Bis) in WFI, pH 7.22 (titer/NaOH), 205 mg/ml salt, TFA Salt
  Appearance: precipitated
physchem; 0.1% sodium bisulfite in WFI, 25 °C, aqueous buffer, thermodynamic from solid, solvent 0.1% sodium bisulfite (Na Bis) in WFI, pH 7.22 (titer/NaOH), precipitated during titration
  solubility: ≤ 205 mg/mL
physchem; DMSO:(0.1% NaBis in WFI) (70:30), pH 5.40, 200 mg/ml salt
  Appearance: clear
physchem; DMSO, 184 mg/ml salt
  Appearance: clear
physchem; NMP:(0.1% NaBis in WFI) (70:30), pH 4.62, 200 mg/ml salt
  Appearance: clear
physchem; NMP, 200 mg/ml salt
  Appearance: Clear
physchem; WFI, pH ~2, 210 mg/ml salt
  Appearance: clear
physchem; […] CD solution in WFI, pH 8.35, 178 mg/ml salt
  Appearance: clear
physchem; solvent 0.1% sodium bisulfite (Na Bis) in WFI, pH 7.22 (titer/NaOH), precipitated during titration
  LD-Tyr free base Concentration: 160 mg/mL
physchem; solvent DMSO
  LD-Tyr TFA salt concentration: 184 mg/mL
  LD-Tyr free base Concentration: 140 mg/mL
physchem; [8]
  LD-Tyr TFA salt concentration: 200 mg/mL
  LD-Tyr free base Concentration: 150 mg/mL
physchem; solvent NMP
  LD-Tyr TFA salt concentration: 200 mg/mL
  LD-Tyr free base Concentration: 150 mg/mL
physchem; [9]
  LD-Tyr TFA salt concentration: 200 mg/mL
  LD-Tyr free base Concentration: 150 mg/mL
physchem; solvent Water for injection (WFI), pH ~2
  LD-Tyr TFA salt concentration: 210 mg/mL
physchem; solvent Water for irrigation (WFI), pH ~2
  LD-Tyr free base Concentration: 160 mg/mL
physchem; [10]
  LD-Tyr TFA salt concentration: 178 mg/mL
  LD-Tyr free base Concentration: 135 mg/mL
[1]
  Ke: 0.0217
  metabolism in human liver S9 (in words): rapidly metabolized

## NC(=O)C[C@H](NC(=O)[C@@H](N)Cc1ccc(O)c(O)c1)C(=O)O [LD-Asn TFA salt, Levodopa Asparagine TFA Salt] (H-[Dopa]-Asn-OH)
[1]
  Ke: 0.0015

## NCCCC[C@H](NC(=O)[C@@H](N)Cc1ccc(O)c(O)c1)C(=O)O [LD-Lys TFA salt, Levodopa Lysine TFA Salt] (H-[Dopa]-Lys-OH)
physchem; 0.1% NaBis in WFI, pH 7.0, 520 mg/ml salt
  Appearance: clear
physchem; 0.75% CD solution, pH 6.5, 250 mg/ml salt
  Appearance: precipitated
physchem; 0.75% CD solution, pH 7.4, 205 mg/ml salt
  Appearance: clear
physchem; 0.75% CD solution, pH 7.4, 250 mg/ml salt
  Appearance: precipitated
physchem; 25 °C, aqueous buffer, thermodynamic from solid, solvent 0.1% NaBis in WFI, pH 7.0
  solubility thermodynamic: 520 mg/mL
physchem; 25 °C, water, thermodynamic from solid, solvent WFI, pH 1.86
  solubility thermodynamic: 770 mg/mL
physchem; WFI, pH 1.86, 770 mg/ml salt
  Appearance: clear
physchem; WFI, pH 7.1, 600 mg/ml salt
  Appearance: clear
physchem; […] CD solution, pH 8.36, 180 mg/ml salt
  Appearance: clear
physchem; solvent 0.1% NaBis in WFI, pH 7.0
  LD-Lys free base Concentration: 310 mg/mL
physchem; [11]
  LD-Lys TFA salt concentration: 250 mg/mL
  LD-Lys free base Concentration: 150 mg/mL
physchem; [12]
  LD-Lys TFA salt concentration: 205 mg/mL
  LD-Lys free base Concentration: 120 mg/mL
physchem; [13]
  LD-Lys TFA salt concentration: 250 mg/mL
  LD-Lys free base Concentration: 150 mg/mL
physchem; solvent WFI, pH 1.86
  LD-Lys free base Concentration: 450 mg/mL
physchem; solvent WFI, pH 7.1
  LD-Lys TFA salt concentration: 600 mg/mL
  LD-Lys free base Concentration: 350 mg/mL
physchem; [14]
  LD-Lys TFA salt concentration: 180 mg/mL
  LD-Lys free base Concentration: 110 mg/mL
[1]
  Ke: 0.0788
  metabolism in human liver S9 (in words): rapidly metabolized
[2]; pH 6.5, 250 mg/ml salt
  Stability: Precipitated* (precipitated within 12 hours)
[2]; pH 7.4, 250 mg/ml salt
  Stability: Precipitated* (precipitated within 12 hours)

## N[C@@H](CSC[C@H](NC(=O)[C@@H](N)Cc1ccc(O)c(O)c1)C(=O)O)C(=O)O (single isomer, unassigned; peak 2) [LD-LA2 TFA salt, Levodopa Lanthionine Peak 2 TFA Salt]
Caco-2 cells
  mean permeability compared with the other compounds (in words): highest mean permeability

## N[C@@H](Cc1ccc(O)c(O)c1)C(=O)N[C@@H](CC(=O)O)C(=O)O [LD-Asp TFA salt, Levodopa Aspartic Acid] (H-[Dopa]-Asp-OH)
[1]
  Ke: 0.0008

Reference: patent publication US20220362386A1, “LIQUID COMPOSITIONS COMPRISING A LEVODOPA AMINO ACID CONJUGATE AND USES THEREOF” (NeuroDerm, Ltd., priority 2019, published 2022)
